In assay [1] the test system is peritumor microvessel blood flow. The assay is described as follows: Tumor microvascular blood flow (laser Doppler). As to conditions: intratumoral injection; AOAA 9 mg/kg, L-cysteine 1 mg/kg. It is filed as in vivo, mice. As to the method:
FIG. 6. L-Cysteine increases, while AOAA reduces microvessel blood flow in tumor bearing mice. Tumor bearing mice were anesthetized by i.p. injection of ketamine-xylazine and a laser Doppler (PeriFlux system 5000) was placed on top of the tumor for microvessel blood flow measurements. After a stabilization period, L-Cys or AOAA were injected subcutaneously in proximity of the tumor. […] Data represent mean±SEM of n=6 determinations.
Skin microvascular blood flow was measured using a PeriFlux 5000 laser-Doppler flowmeter. Mice bearing PTX were anesthetized by ketamine-xylazine (i.p.). The laser-Doppler probe was placed on top of the tumors and a stable basal signal was recorded. Changes in the subcutaneous microcirculatory perfusion were detected following intratumoral injections of either L-cysteine (1 mg/kg) or AOAA (9 mg/kg).

For assay [2], the system named is mitochondria isolated from HCT116 cells. The assay is described as follows: Bioenergetic analysis in isolated mitochondria. It is filed as cell-based, human. The settings on record: L-cysteine 30 nM; mitochondria from control shNT cells. Here is the method: Bioenergetic measurements in mitochondria isolated from shNT and shCBS HCT-116 cells were conducted in the absence or presence of L-cysteine (30 nM) (Módis et al. (2013) FASEB J 27:601-11; Wu et al. (2007) Am J Physiol Cell Physiol. 292:C125-36). Basal respiration (State 2) in the presence of succinate and rotenone was measured, followed by State 3 (phosphorylating respiration), in the presence of ADP. State 4o was determined after the addition of oligomycin, and maximal uncoupler-stimulated respiration (State 3u) was assessed in the presence of FCCP.

A further assay deals with HCT116 colon cancer cell. The assay is described as follows: HCT116 colon cancer cell proliferation (xCELLigence). It is filed as cell-based, human. The settings on record: for inhibition at 300 µM / IC50: Homo sapiens, HCT-116; for IC50: read-out: IC50 (μM), inhibition of HCT116 colon cancer cell proliferation. As to the method:
Cellular proliferation assays are conducted in HCT116 CRC cells in vitro, using the Roche XCelligence method. Concentration-response curves with the various AOAA analogs are prepared (concentration range: 1, 3, 10, 100, 300 and 600 μM). AOAA is used as the reference control, which, according to preliminary data, has an IC50 of approximately 300 μM. Control proliferation studies in the non-carcinogenic colonic epithelial cell line NCM356 are used to confirm cancer-cell selectivity. Since the NCM356 cells contain low levels of CBS, based on previous studies it is expect that AOAA (and its prodrugs) will only exert modest antiproliferative effects in these cells. Proliferation-inhibitory effects of the AOAA prodrugs in NCM356 cells indicate CBS-independent pharmacological actions. A collection of human colorectal tumor tissue samples (and surrounding non-cancerous tissue) are used to test the conversion of the AOAA prodrugs to AOAA in a number of cancer samples.
(§1) Cellular migration and invasion assays were performed as described (Chao et al. (1996) Cancer Res. 56:4811-19). Briefly, 10^5 cells were suspended in serum-free media containing 0.1% BSA and then added to 6.5 mm Transwell chambers ([…]) uncoated (migration assay) or coated with a thin layer (45 μl) of growth factor reduced matrigel (cell invasion assay). Cells were allowed to migrate toward the bottom chamber containing fibroblast (NIH-3T3 cells) conditioned media at 37° C. for 6 or 24 h for cell migration and invasion, respectively. Migrated and invaded cells were then fixed in Carson's fixative, stained in 0.33% toluidine blue and quantified by visual counting. For the HCT116-EAhy926 co-culture experiment, the cancer cell line was grown to confluence in the bottom wells of the transwell chambers and then endothelial cell migration was assessed (Coletta et al. (2012) Proc Natl Acad Sci USA. 109:9161-66). For assessment of colon cell proliferation, the xCELLigence system (Roche) was used (Szabo and Papapetropoulos (2011) Br J Pharmacol. 164:853-65).
For assessment of cell proliferation, the xCELLigence system (Roche) was used. Briefly, HCT116 cells were cultured until approximately 70% confluence. Cells were then detached by Trypsin-EDTA and resuspended in fresh culture media at a concentration of 30,000 cells/ml. 200 μl of cell suspension was added to each well (6,000 cells/well) of a E-plate 96, a specially designed 96-well microtiter plate containing interdigitated microelectrodes to non-invasively monitor the cell proliferation by measuring the relative change in the electrical impedance of the cell monolayer, a unitless parameter named cell index (CI). Cells were then treated with YD02-51 and proliferation was monitored for 48 hours.

The test system of the next assay is HCT116 tumor xenografts. The assay is described as follows: HCT116 tumor xenograft in nude mice. It is filed as in vivo, Nu/nu Balb/C female mice. The settings on record: 0.1, 0.5 or 1 mg/kg s.c. 6 days/week; harvest Day 28. Here is the method: Nu/nu Balb/C female mice (8-10 weeks) were injected subcutaneously in the right and left dorsum (10^6 cells/side with HCT-116 cells). One week later, the mice were randomized and subcutaneous injections of phosphate buffered saline (PBS) or AOAA (9 mg/kg/day) were performed 6 days/week. Tumor diameters were measured transcutaneously using calipers and tumor volumes were calculated using the formula V=(π/6)hd^2. T-test comparisons of the tumor volumes and final weights at harvest were performed. Xenotrials with patient-derived xenografts (PTX) were performed on nu/nu mice implanted subcutaneously with a piece of Passage 2 tumor measuring 2-5 mm^3 each. When a small palpable tumor was evident at 7-10 days, the mice with tumor take were randomized and subjected to subcutaneous injection of vehicle or AOAA (9 mg/kg/day) 6 days/week. Specimens were fixed with 10% formalin and embedded in paraffin. 5 μm sections were stained with hematoxylin and eosin. Each in vivo experiment was repeated at least twice.
Tissue preparation, immunostaining of CD31, and evaluation of microvessel density with the Chakley reticle was performed as described (Chao et al. (1996) Cancer Res. 56:4811-19).
Nu/nu Balb/c female mice (8-10 weeks) were injected subcutaneously in the right and left dorsum (10^6 cells/side with HCT116 cells). One week later, the mice were randomized and subcutaneous injection of phosphate buffered saline (PBS control) or YD2-51 (0.1, 0.5 or 1 mg/kg) was performed 6 days/week. Tumor volumes and final weights at harvest (post-tumor injection Day 28) were performed and tumor weight/animal weight ratios calculated.

In the next assay the test system is HCT116 cells. The assay is described as follows: HCT116 cell migration and invasion (Transwell). It is filed as cell-based, human. The settings on record: NaHS 30 μM in lower chamber; serum-free media. As to the method:
FIG. 3. […] (A, B) The lentiviral shRNA vectors targeting CBS (shCBS) and CSE (shCSE) were transfected into HCT116 cells. A non-targeting sequence was used as control (shNT). […] Following CBS and CSE silencing, cells were seeded at the density of 3000 cells/well in xCELLigence plates and proliferation was monitored for 36 hours. […] The NCM356 cells were infected overnight with a CBS expressing adenovirus (Ad-CBS, 10 multiplicity of infection (MOI)) or its control, a green fluorescent protein (Ad-GFP). The culture media was then replaced and cells were seeded in XCelligence plates at 3000 cells/well. Cell proliferation was then measured real-time over 36 hours. […] (H, I) The effect of AOAA and NaHS was also tested on HCT116 cell migration (H) and invasion (I). Cells were pretreated either with vehicle or AOAA (1 mM) and seeded in serum-free DMEM (0.1% albumin) in the upper chamber of a trans-well insert uncoated (migration assay) or coated with growth factor reduced matrigel (invasion assay). Migration and invasion were stimulated by fibroblast-conditioned media in the lower chamber for 6 and 24 hours, respectively. […] (J) In a co-culture of human endothelial cells (EAhy926) and colon cancer cells (HCT116), HCT 116 cells were seeded in the lower chamber of a trans-well insert and cultured to confluence. Endothelial cells were then seeded into the upper chamber in serum-free DMEM and allowed to migrate for 4 hours at 37° C. […] Western blots are representative of at least three independent experiments; proliferation/migration/invasion assays and H2S measurements represent mean±SEM of n=3 determinations.
as §1, with “109:9161-66).” for “109:9161-66). For assessment of colon cell proliferation, the xCELLigence system (Roche) was used (Szabo and Papapetropoulos (2011) Br J Pharmacol. 164:853-65).”

“Also recorded” adds a separate entry of the source.

Usually inhibition stands for the share of the control response that was lost under treatment. Read a high inhibition as strong suppression.

As to `N[C@@H](CS)C(=O)O` [L-cysteine], the “peritumor / skin microvessel blood flow” value in assay [1] is “increased”. Moreover, in assay [2], the “OCR in state 3 and state 3u respiration” value is reported as “elevates OCR”.
Regarding `NOCC(=O)OCc1ccccc1` [YD-2-22], testing at 300 µM with HCT116 colon cancer cell (HCT116) gave an inhibition of 91%. Further, the IC50 in the assay on HCT116 colon cancer cell is 159 µM.
As to `COC(=O)CON` [YD-1-71, aminooxyacetic acid methyl ester], in the assay with HCT116 colon cancer cell (HCT116), the “antiproliferative effect in HCT116 compared with parent AOAA” value is recorded as “markedly enhances the antiproliferative effect; also recorded: substantially lower concentrations” and at 300 µM the inhibition was 80%. Moreover, the IC50 with HCT116 colon cancer cell was 181 µM.
Regarding `CCC(CC)OC(=O)CON` [YD-2-51, pentan-3-yl 2-(aminooxy)acetate], the “tumor cell proliferation (cell index)” value in the assay with HCT116 colon cancer cell (HCT116, 6,000 cells/well, monitored 48 hours) is “potent, concentration-dependent inhibition”. Moreover, the “tumor growth in tumor-bearing mice” value in the assay with HCT116 tumor xenografts is reported as “inhibited tumor growth”.
Molecule `CC(C)(C)OC(=O)NOCC(=O)O` [YD-2-23] registered an inhibition at 300 µM in the assay on HCT116 colon cancer cell (HCT116) of 71%. Moreover, in the assay with HCT116 colon cancer cell, the IC50 amounted to 207 µM.
As for `[Na+].[SH-]` [NaHS, sodium hydrogen sulfide], in the assay on HCT116 cells, the HCT116 cell invasion entry is “slightly enhanced” and the HCT116 cell migration result is “slightly enhanced”.

(Values after patent US10335382B2, “Use of hydrogen sulfide synthesis inhibitors for cancer therapy” (THE BOARD OF REGENTS OF THE UNIVERSITY OF TEXAS SYSTEM, priority 2013, dated 2019).)
